For series [1], the system named is intracellular L. donovani amastigotes. Put plainly: Intracellular L. donovani amastigotes in infected THP-1 cells (image-based). Type of series: cell-based. The conditions noted are these: Leishmania donovani, 72 h, duplicates, read-out: Intracellular L. donovani IC50 ± SD. The text has this:
(§1) As the extracellular promastigotes form represents the insect stage of the parasite, assessment of activity is needed to confirm activity against the intracellular amastigotes form, which is the human host form (mammalian host form). In addition, a preliminary assessment of selectivity and safety might be desirable to evaluate the quality of hit compounds. Accordingly, compound 1e and its enantiomer; 1a, in parallel with standard drugs miltefosine and erufosine were submitted for evaluation in intracellular amastigotes model using infected THP-1 cells; human monocytic cell line derived from an acute monocytic leukaemia. In addition, cytotoxicity of tested compounds and standards were evaluated against THP-1 cells and normal human embryonic kidney cells; HEK293T to evaluate selectivity and safety. PMA-treated THP-1 human monocytic cells were seeded at 0.8 × 10^4 cells per well in a 384-well culture plate (Greiner Bio-One, Kremsmünster, Austria) in RPMI-1640 complete medium supplemented with 10% FBS. After 48 h of incubation at 37 °C in the presence of 5% CO2, infected THP-1 cells were treated with miltefosine (at 80 µM, positive control), and tested compounds (at 200 µM). The negative control consisted of THP-1 infected with the parasite with only 0.5% DMSO. After 72 h, the cells that were infected and treated with the drug were washed with serum-free RPMI-1640 medium. The cells and parasites were stained using 5 µM DAPI and 4% PFA. The images were acquired based on reading using an Operetta® automated microscope (PerkinElmer, Inc., Waltham, MA 02451, USA). They were further analysed using Columbus^TM (PerkinElmer, Inc. Waltham, MA, USA) software to quantify parasite numbers, and host cell numbers. In brief, large-sized nucleus of host cells was first detected using DAPI signal and the host cell boundary masking was performed using the low-intensity signals from cytosols. Then the small-sized nucleus signal by DAPI was used to identify parasites within the area of the masked host cell. The DRC results were further assessed in a dose-dilution manner (two-fold serial dilution for 10 points starting from 200 µM).

Series [2] is described as follows: Cytotoxicity against HEK293T cells (resazurin). The series is classed as cell-based. The note with it: human, duplicates, read-out: HEK293T CC50 ± SD. From the text: As the extracellular promastigotes form represents the insect stage of the parasite, assessment of activity is needed to confirm activity against the intracellular amastigotes form, which is the human host form (mammalian host form). In addition, a preliminary assessment of selectivity and safety might be desirable to evaluate the quality of hit compounds. Accordingly, compound 1e and its enantiomer; 1a, in parallel with standard drugs miltefosine and erufosine were submitted for evaluation in intracellular amastigotes model using infected THP-1 cells; human monocytic cell line derived from an acute monocytic leukaemia. In addition, cytotoxicity of tested compounds and standards were evaluated against THP-1 cells and normal human embryonic kidney cells; HEK293T to evaluate selectivity and safety. Cytotoxicity against HEK293T cell growth was assayed by measuring the conversion of resazurin to resorufin. The assays were performed in 384-well plates that were seeded with HEK293T cells (1000 cells per well). After seeding, the cells were exposed to the compounds for 3 days. Resazurin sodium salt (200 µM; R7017; Sigma-Aldrich, St. Louis, MO, USA) was then added, and the samples were incubated for 5 h. After incubation, the […] were fixed using 4% paraformaldehyde, and the plates were analysed using a Victor3TM plate reader (PerkinElmer, Inc., Waltham, MA, USA) at 590 nm (emission) and 530 nm (excitation). Miltefosine and saponin were used as the reference drugs for the HEK293T growth inhibition.
(Alamar Blue is a resazurin reagent that responds to reducing activity.)

Series [3] can be described thus: Cytotoxicity against THP-1 host cells. The series is classed as cell-based, human. The note with it: human, PMA-treated THP-1 monocytic cells infected with the parasite; THP-1 cells, duplicates; read-out: THP-1 cell CC50 ± SD.
Source text: as §1

Another series has as its system THP-1 cells. Put plainly: Cytotoxicity against THP-1 host cells. The series is classed as cell-based, human. The note with it: CC50 THP-1 divided by IC50 intracellular L. donovani.
Source text: as §1

The test system of series [4] is L. donovani promastigotes. Put plainly: Growth inhibition of L. donovani promastigotes (resazurin-based assay). The series is classed as cell-based, Leishmania donovani. More on the design: Inhibition at both 50 and 25 µM concentrations: unit: %. The conditions noted are these: for inhibition at 25 µM / inhibition at 50 µM / IC50: Leishmania donovani, 72 h, incubation 3 days; for inhibition at 25 µM / inhibition at 50 µM: relative to control; for inhibition at 25 µM: read-out: % Inhibition at 25 µM concentration; for inhibition at 50 µM: read-out: % Inhibition at 50 µM concentration; for IC50: extracellular promastigotes, duplicates, read-out: IC50 ± SD, growth of L. donovani promastigotes; for Potency against promastigotes (in words): dose-response evaluation. As to the method: Out of 20 known Leishmania species pathogenic to humans, L. donovani, which causes visceral leishmaniasis, is the most fatal. Consequently, an in vitro model of L. donovani promastigotes[26] was selected to evaluate the activity of the synthesised pyrrolidine-based 3-deoxysphingosylphosphorylcholine analogs 1e–i, 2a–f, 3a–f at two concentration (50 and 25 µM) employing miltefosine and erufosine (ErPC; erucylphosphocholine) as reference standards using a resazurin-based assay.
For comparison, erufosine and miltefosine were used as reference standards.
L. donovani MHOM/SD/62/1S-CL2D parasites were cultured as promastigotes at 28 °C in M199 medium (Sigma-Aldrich, St. Louis, MO, USA) with 40 mM HEPES, 0.1 mM adenine, 0.0001% biotin, and 4.62 mM NaHCO3 supplemented with 10% foetal bovine serum (FBS, Gibco, Carlsbad, CA, USA), […] penicillin (Gibco), and 100 µg/mL streptomycin (Gibco). Parasites were sub-cultured every 3 or 4 days and maintained for 10 passages.
The plates were analysed using a Victor3TM plate reader (PerkinElmer, Inc., Waltham, MA, USA) at 590 nm (emission) and 530 nm (excitation). Miltefosine and erufosine were used as the reference standards. All measured and calculated values are the averages of duplicates. The dose-response curves were generated by GraphPad Prism 6 software using a sigmoidal dose-response equation with a variable hill slope option.

Consider 21 molecules from publication PMC8386730, “Pyrrolidine-based 3-deoxysphingosylphosphorylcholine analogs as possible candidates against neglected tropical diseases (NTDs): identification of hit compounds towards development of potential treatment of Leishmania donovani” (Journal of Enzyme Inhibition and Medicinal Chemistry, 2021).

As for `CCCCCCCCCCCCCCCC(=O)N1CCC[C@@H]1COP(=O)([O-])OCC[N+](C)(C)C` [Compound 1a], the IC50 in series [1] is 11.3 ± 1.81 µM. Also, the cytotoxic concentration (CC50) at 3 days in series [2] came out at 30.6 ± 2.31 µM. Besides, the CC50 at 72 h in series [3] worked out at 25.3 ± 3.56 µM. The Selectivity index with THP-1 cells is 2.2. In series [4], the inhibition at 25 µM was 107%; the inhibition at 50 µM turned out to be 108%; the IC50 was 52.6 ± 1.44 µM; the “Inhibition at both 50 and 25 µM concentrations” value is given as at least 100.

With `CCCCCC/C=C\CCCCCCCC(=O)N1CCC[C@@H]1COP(=O)([O-])OCC[N+](C)(C)C` [Compound 1b], in series [4], the inhibition at 25 µM worked out at 108%; the inhibition at 50 µM was determined as 109%; the IC50 is 66.1 ± 3.61 µM; the “Inhibition at both 50 and 25 µM concentrations” value is at least 100.

Consider `CCCCCCCC/C=C\CCCCCCCC(=O)N1CCC[C@@H]1COP(=O)([O-])OCC[N+](C)(C)C` [Compound 1c], for which, in series [4], the inhibition at 25 µM was 10% and the inhibition at 50 µM was determined as 51%.

Consider `CCCCCCCC/C=C\CCCCCCCCCCCC(=O)N1CCC[C@@H]1COP(=O)([O-])OCC[N+](C)(C)C` [Compound 1d], for which, in series [4], the inhibition at 25 µM was 107%; the inhibition at 50 µM came to 108%; the IC50 is 46.65 ± 0.45 µM; the “Inhibition at both 50 and 25 µM concentrations” value is given as at least 100.

As for `CCCCCCCCCCCCCCCC(=O)N1CCC[C@H]1COP(=O)([O-])OCC[N+](C)(C)C` [Compound 1e], the IC50 in series [1] worked out at 14.3 ± 2.03 µM. The 50% cytotoxic concentration (CC50) at 3 days in series [2] was 45.1 ± 5.01 µM. For the same molecule, in series [3], the cytotoxic concentration (CC50) at 72 h turned out to be 15.8 ± 3.23 µM. This molecule also returned a Selectivity index in the series with THP-1 cells of 1.1. Also, in series [4], the inhibition at 25 µM worked out at 107%; the inhibition at 50 µM stood at 107%; the half-inhibitory concentration (IC50) turned out to be 28.3 ± 1.38 µM; the “Activity at both 50 and 25 µM concentrations (in words)” value (“Activity” below) is “highly active”.

With `CCCCCCCC/C=C\CCCCCCCC(=O)N1CCC[C@H]1COP(=O)([O-])OCC[N+](C)(C)C` [Compound 1f], in series [4], the inhibition at 25 µM is 65% and the inhibition at 50 µM worked out at 108%.

On to `CCCCCCCC/C=C\CCCCCCCCCCCC(=O)N1CCC[C@H]1COP(=O)([O-])OCC[N+](C)(C)C` [Compound 1g], for which, in series [4], the inhibition at 25 µM amounted to 110%; the inhibition at 50 µM is 109%; the IC50 stood at 68.47 ± 0.04 µM; the “Activity” value was “highly active”.

With `CCCCC/C=C\C/C=C\CCCCCCCC(=O)N1CCC[C@H]1COP(=O)([O-])OCC[N+](C)(C)C` [Compound 1h], in series [4], the inhibition at 25 µM was -18%; the inhibition at 50 µM is 0%; the “Activity” value is “completely inactive”.

Take `CC/C=C\C/C=C\C/C=C\CCCCCCCC(=O)N1CCC[C@H]1COP(=O)([O-])OCC[N+](C)(C)C` [Compound 1i]: in series [4], the inhibition at 25 µM was -16%; the inhibition at 50 µM was 1%; the “Activity” value was “completely inactive”.

In the case of `CCCCCCCCCCCCCCCC(=O)N1CC[C@H](COP(=O)([O-])OCC[N+](C)(C)C)C1` [Compound 2a], in series [4], the inhibition at 25 µM turned out to be 107%; the inhibition at 50 µM was 108%; the IC50 amounted to 54.6 ± 2.02 µM; the “Activity” value is “highly active”.

Take `CCCCCC/C=C\CCCCCCCC(=O)N1CC[C@H](COP(=O)([O-])OCC[N+](C)(C)C)C1` [Compound 2b]: in series [4], the inhibition at 25 µM came out at 27% and the inhibition at 50 µM was found to be 98%.

As for `CCCCCCCC/C=C\CCCCCCCC(=O)N1CC[C@H](COP(=O)([O-])OCC[N+](C)(C)C)C1` [Compound 2c], in series [4], the inhibition at 25 µM was -19% and the inhibition at 50 µM amounted to 107%.

`CCCCCCCC/C=C\CCCCCCCCCCCC(=O)N1CC[C@H](COP(=O)([O-])OCC[N+](C)(C)C)C1` [Compound 2d]: in series [4], the inhibition at 25 µM was 107%; the inhibition at 50 µM stood at 109%; the IC50 is above 100 µM; the “Activity” value was “highly active”. In addition, in series [4], the “Potency against promastigotes (in words)” value was “poor potency”.

With `CCCCC/C=C\C/C=C\CCCCCCCC(=O)N1CC[C@H](COP(=O)([O-])OCC[N+](C)(C)C)C1` [Compound 2e], in series [4], the inhibition at 25 µM amounted to 34% and the inhibition at 50 µM is 101%.

Consider `CC/C=C\C/C=C\C/C=C\CCCCCCCC(=O)N1CC[C@H](COP(=O)([O-])OCC[N+](C)(C)C)C1` [Compound 2f], for which, in series [4], the inhibition at 25 µM worked out at 0%; the inhibition at 50 µM turned out to be 9%; the “Activity” value was “completely inactive”.

`CCCCCCCCCCCCCCCC(=O)N1CC[C@@H](OP(=O)([O-])OCC[N+](C)(C)C)C1` [Compound 3a]: in series [4], the inhibition at 25 µM turned out to be 108%; the inhibition at 50 µM was 109%; the IC50 was above 100 µM; the “Activity” value was “highly active”. In series [4], the “Potency against promastigotes (in words)” value is reported as “weak potency”.

For the molecule `CCCCCC/C=C\CCCCCCCC(=O)N1CC[C@@H](OP(=O)([O-])OCC[N+](C)(C)C)C1` [Compound 3b], in series [4], the inhibition at 25 µM was found to be 67% and the inhibition at 50 µM was found to be 90%.

`CCCCCCCC/C=C\CCCCCCCC(=O)N1CC[C@@H](OP(=O)([O-])OCC[N+](C)(C)C)C1` [Compound 3c]: in series [4], the inhibition at 25 µM was 106%; the inhibition at 50 µM is 106%; the IC50 was above 100 µM; the “Activity” value was “maintained high activity”. Moreover, the “Potency against promastigotes (in words)” value in series [4] is “weak potency”.

For `CCCCCCCC/C=C\CCCCCCCCCCCC(=O)N1CC[C@@H](OP(=O)([O-])OCC[N+](C)(C)C)C1` [Compound 3d], in series [4], the inhibition at 25 µM stood at 107%; the inhibition at 50 µM was 104%; the IC50 is above 100 µM; the “Activity” value is recorded as “highly active”. Besides, the “Potency against promastigotes (in words)” value in series [4] is on record as “poor potency”.

Consider `CCCCC/C=C\C/C=C\CCCCCCCC(=O)N1CC[C@@H](OP(=O)([O-])OCC[N+](C)(C)C)C1` [Compound 3e], for which, in series [4], the inhibition at 25 µM is 0% and the inhibition at 50 µM worked out at 69%.

Regarding `CC/C=C\C/C=C\C/C=C\CCCCCCCC(=O)N1CC[C@@H](OP(=O)([O-])OCC[N+](C)(C)C)C1` [Compound 3f], in series [4], the inhibition at 25 µM was -14%; the inhibition at 50 µM is 1%; the “Activity” value was “completely inactive”.

As a reminder, the IC50 is the concentration that gives 50% inhibition. By CC50 is commonly meant the concentration that lowers cell viability or growth by half.
